Experimental data published in US20240409585A1, “MACROCYCLIC IMMUNOMODULATORS” (priority 2021, published 2024).
Bridge positions count the residues as written; N and C are the ends. Square brackets hold non-standard residues; d marks the D form. Peptide text beside a SMILES is read from it. * marks the point of attachment. ξ: configuration not given here. Phe(4-COOH) = N[C@@H](Cc1ccc(C(=O)O)cc1)C(=O)O; Phe(4-CH2NH2) = NCc1ccc(C[C@H](N)C(=O)O)cc1; Bip = N[C@@H](Cc1ccc(-c2ccccc2)cc1)C(=O)O; Lys(Me3) = C[N+](C)(C)CCCC[C@H](N)C(=O)O; Phe(3-CN) = N#Cc1cccc(C[C@H](N)C(=O)O)c1; Phe(3-Cl) = N[C@@H](Cc1cccc(Cl)c1)C(=O)O; Phe(4-CN) = N#Cc1ccc(C[C@H](N)C(=O)O)cc1; Phe(4-Cl) = N[C@@H](Cc1ccc(Cl)cc1)C(=O)O; Phe(2-Br) = N[C@@H](Cc1ccccc1Br)C(=O)O; Phe(3-Me) = Cc1cccc(C[C@H](N)C(=O)O)c1; Val(3-OH) = CC(C)(O)[C@H](N)C(=O)O; 4Pal = N[C@@H](Cc1ccncc1)C(=O)O; Cha = N[C@@H](CC1CCCCC1)C(=O)O; Cit = NC(=O)NCCC[C@H](N)C(=O)O; Ile(3ξ) = CCC(C)[C@H](N)C(=O)O; Thr(3ξ) = CC(O)[C@H](N)C(=O)O; Dap(Me) = CNC[C@H](N)C(=O)O; Carboxymethyl = O=C(O)C*; NMeA = CN[C@@H](C)C(=O)O; Orn = NCCC[C@H](N)C(=O)O; Dab = NCC[C@H](N)C(=O)O; Dap = NC[C@H](N)C(=O)O; ξC = NC(CS)C(=O)O

What follows are compounds tested against T1, PE-labeled human PD-L1-Ig binding to Jurkat cell line over-expressing human PD-1 (Jurkat-PD-1) (Homo sapiens, UniProt Q15116) (assay: Jurkat-PD-1 Cell Binding High-Content Screening Assay (CBA): Method 1). Details: Jurkat-hPD-1 cells, PE-labeled PD-L1-Ig 20 nM final; read-out: Jurkat HPDL1 PD1 IC50 (uM) (Method 1).
T1 construct: expressed in transfected cells; host or cells: Jurkat
T1 sequence (Q15116 25-288): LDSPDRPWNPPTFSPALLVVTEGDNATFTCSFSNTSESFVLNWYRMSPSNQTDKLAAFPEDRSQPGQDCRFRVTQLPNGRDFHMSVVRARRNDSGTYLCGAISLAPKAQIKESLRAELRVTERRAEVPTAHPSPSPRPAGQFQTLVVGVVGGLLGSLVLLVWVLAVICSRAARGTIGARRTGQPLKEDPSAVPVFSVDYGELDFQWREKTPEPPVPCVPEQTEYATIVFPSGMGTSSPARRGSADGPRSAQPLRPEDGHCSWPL
`CNC[C@@H]1NC(=O)[C@@H](CC(C)C)NC(=O)[C@H](C)N(C)C(=O)[C@H](CCCNC(N)=O)NC(=O)[C@H](Cc2ccc(-c3ccccc3)cc2)NC(=O)[C@H](C(C)C)NC(=O)[C@H](Cc2c[nH]c3ccccc23)NC(=O)[C@H](CC(=O)O)NC(=O)[C@H](Cc2ccc(O)cc2)NC(=O)[C@H](CC(N)=O)NC(=O)CSC[C@@H](C(=O)N[C@@H](C)C(N)=O)NC(=O)[C@H](C(C)O)NC(=O)[C@H](C(C)C)NC(=O)[C@H](CC(C)C)NC1=O` (stereo partly drawn) [Compound 2039] ({CH2CO}-NYDWV[Bip][Cit][NMeA][dL][Dap(Me)]LV[Thr(3ξ)]CA-NH2; thioether N-14) was tested, and the IC50 was 0.08 µM.
With `CC(C)C[C@@H]1NC(=O)[C@H](CCN)NC(=O)[C@@H](CC(C)C)NC(=O)[C@H](C)N(C)C(=O)[C@H](CCCNC(=N)N)NC(=O)[C@H](Cc2ccc(-c3ccccc3)cc2)NC(=O)[C@H](C(C)C)NC(=O)[C@H](Cc2cccc(Cl)c2)NC(=O)[C@H](CC(=O)O)NC(=O)[C@H](Cc2ccc(OCC(=O)O)cc2)NC(=O)[C@H](CN)NC(=O)CSC[C@@H](C(=O)N[C@@H](C)C(N)=O)NC(=O)[C@H]([C@@H](C)O)NC(=O)[C@H](C(C)C)NC1=O` [Compound 1458] ({CH2CO}-[Dap]Y(Carboxymethyl)D[Phe(3-Cl)]V[Bip]R[NMeA][dL][Dab]LVTCA-NH2; thioether N-14) the IC50 was 0.04 µM.
In the case of `CC(C)C[C@@H]1NC(=O)[C@H](Cc2c[nH]c3ccccc23)NC(=O)[C@H](CC(=O)O)NC(=O)[C@H](Cc2ccccc2Br)NC(=O)[C@H](Cc2ccccc2)NC(=O)CSC[C@@H](C(=O)N[C@@H](C)C(N)=O)NC(=O)[C@H](CO)NC(=O)[C@H](C(C)C)NC(=O)[C@H](CC(C)C)NC(=O)[C@H](CC(N)=O)NC(=O)[C@@H](C)NC(=O)[C@H](C)N(C)C(=O)[C@H](C(C)C)NC(=O)[C@H](Cc2ccc(-c3ccccc3)cc2)NC1=O` [Compound 1823] ({CH2CO}-F[Phe(2-Br)]DWL[Bip]V[NMeA][dA]NLVSCA-NH2; thioether N-14), the IC50 is reported as 0.6 µM.
Compound `CC(C)C[C@@H]1NC(=O)[C@H](Cc2c[nH]c3ccccc23)NC(=O)[C@H](CC(=O)O)NC(=O)[C@H](Cc2ccncc2)NC(=O)[C@H](Cc2ccc(OCC(=O)O)cc2)NC(=O)CSC[C@@H](C(=O)N[C@@H](C)C(N)=O)NC(=O)[C@H](CO)NC(=O)[C@H](C(C)C)NC(=O)[C@H](CC(C)C)NC(=O)[C@H](CC(N)=O)NC(=O)[C@@H](C)NC(=O)[C@H](C)N(C)C(=O)[C@H](C(C)C)NC(=O)[C@H](Cc2ccc(-c3ccccc3)cc2)NC1=O` [Compound 1564] ({CH2CO}-Y(Carboxymethyl)[4Pal]DWL[Bip]V[NMeA][dA]NLVSCA-NH2; thioether N-14) has an IC50 of 0.01 µM.
For `CC(C)C[C@@H]1NC(=O)[C@H](CCCNC(=N)N)NC(=O)[C@@H](CC(C)C)NC(=O)[C@H](C)N(C)C(=O)[C@H](CCCNC(=N)N)NC(=O)[C@H](Cc2ccc(-c3ccccc3)cc2)NC(=O)[C@H](C(C)C)NC(=O)[C@H](Cc2c[nH]c3ccccc23)NC(=O)[C@H](CC(=O)O)NC(=O)[C@H](Cc2ccc(Cl)cc2)NC(=O)[C@H](Cc2ccccc2)NC(=O)CSC[C@@H](C(=O)N[C@@H](C)C(N)=O)NC(=O)[C@H]([C@@H](C)O)NC(=O)[C@H](C(C)C)NC1=O` [Compound 1081] ({CH2CO}-F[Phe(4-Cl)]DWV[Bip]R[NMeA][dL]RLVTCA-NH2; thioether N-14), the IC50 was 0.06 µM.
With `Cc1cccc(C[C@@H]2NC(=O)[C@H](CC(=O)O)NC(=O)[C@H](Cc3ccc(O)cc3)NC(=O)[C@H](CC(N)=O)NC(=O)CSC[C@@H](C(=O)N[C@@H](C)C(N)=O)NC(=O)[C@H]([C@@H](C)O)NC(=O)[C@H](C(C)C)NC(=O)[C@H](CC(C)C)NC(=O)[C@H](CCN)NC(=O)[C@@H](CC(C)C)NC(=O)[C@H](C)N(C)C(=O)[C@H](CCCNC(N)=O)NC(=O)[C@H](Cc3ccc(-c4ccccc4)cc3)NC(=O)[C@H](C(C)C)NC2=O)c1` [Compound 1230] ({CH2CO}-NYD[Phe(3-Me)]V[Bip][Cit][NMeA][dL][Dab]LVTCA-NH2; thioether N-14) the IC50 was 0.01 µM.
`CC[C@H](C)[C@@H]1NC(=O)[C@H](Cc2ccc(-c3ccccc3)cc2)NC(=O)[C@H](C(C)C)NC(=O)[C@H](Cc2c[nH]c3ccccc23)NC(=O)[C@H](CC(=O)O)NC(=O)[C@H](Cc2ccc(C(=O)O)cc2)NC(=O)[C@H](Cc2ccncc2)NC(=O)CSC[C@@H](C(=O)N[C@@H](C)C(N)=O)NC(=O)[C@H]([C@@H](C)O)NC(=O)[C@H](C(C)C)NC(=O)[C@H](CC(C)C)NC(=O)[C@H](CCN)NC(=O)[C@@H](CC(C)C)NC(=O)[C@H](C)N(C)C1=O` [Compound 1411] ({CH2CO}-[4Pal][Phe(4-COOH)]DWV[Bip]I[NMeA][dL][Dab]LVTCA-NH2; thioether N-14) gave an IC50 of 0.02 µM.
With `CCC(C)[C@@H]1NC(=O)[C@H](Cc2ccc(-c3ccccc3)cc2)NC(=O)[C@H](C(C)C)NC(=O)[C@H](Cc2c[nH]c3ccccc23)NC(=O)[C@H](CC(=O)O)NC(=O)[C@H](Cc2ccc(O)cc2)NC(=O)[C@H](Cc2ccncc2)NC(=O)CSC[C@@H](C(=O)N[C@@H](C)C(N)=O)NC(=O)[C@H](C(C)O)NC(=O)[C@H](C(C)C)NC(=O)[C@H](CC2CCCCC2)NC(=O)[C@H](Cc2ccc(CN)cc2)NC(=O)[C@@H](CC(C)C)NC(=O)[C@H](C)N(C)C1=O` (stereo partly drawn) [Compound 2049] ({CH2CO}-[4Pal]YDWV[Bip][Ile(3ξ)][NMeA][dL][Phe(4-CH2NH2)][Cha]V[Thr(3ξ)]CA-NH2; thioether N-14) the IC50 was 0.09 µM.
`Cc1cccc(C[C@@H]2NC(=O)[C@H](CC(=O)O)NC(=O)[C@H](Cc3ccc(OCC(=O)O)cc3)NC(=O)[C@H](Cc3ccncc3)NC(=O)CSC[C@@H](C(=O)N[C@@H](CCN)C(N)=O)NC(=O)[C@H](CC(N)=O)NC(=O)[C@H](C(C)(C)O)NC(=O)[C@H](CC3CCCCC3)NC(=O)[C@H](CCN)NC(=O)[C@@H](CC(C)C)NC(=O)[C@H](C)N(C)C(=O)[C@H](Cc3ccc(OCC(=O)O)cc3)NC(=O)[C@H](Cc3ccc(-c4ccccc4)cc3)NC(=O)[C@H](Cc3ccc(OCC(=O)O)cc3)NC2=O)c1` [Compound 2191] ({CH2CO}-[4Pal]Y(Carboxymethyl)D[Phe(3-Me)]Y(Carboxymethyl)[Bip]Y(Carboxymethyl)[NMeA][dL][Dab][Cha][Val(3-OH)]NC[Dab]-NH2; thioether N-14) showed an IC50 of 0.03 µM.
In the case of `CC(C)C[C@@H]1NC(=O)[C@H](CCN)NC(=O)[C@@H](CC(C)C)NC(=O)[C@H](C)N(C)C(=O)[C@H](C(C)C)NC(=O)[C@H](Cc2ccc(-c3ccccc3)cc2)NC(=O)[C@H](C(C)C)NC(=O)[C@H](Cc2c[nH]c3ccccc23)NC(=O)[C@H](CC(=O)O)NC(=O)[C@H](Cc2cccc(C#N)c2)NC(=O)[C@H](CC(N)=O)NC(=O)CSC[C@@H](C(=O)N[C@@H](C)C(N)=O)NC(=O)[C@H]([C@@H](C)O)NC(=O)[C@H](C(C)C)NC1=O` [Compound 1380] ({CH2CO}-N[Phe(3-CN)]DWV[Bip]V[NMeA][dL][Dab]LVTCA-NH2; thioether N-14), the IC50 is reported as 0.02 µM.
Compound `CC(C)C[C@@H]1NC(=O)[C@H](CCN)NC(=O)[C@@H](CC(C)C)NC(=O)[C@H](C)N(C)C(=O)[C@H](CCCNC(=N)N)NC(=O)[C@H](Cc2ccc(-c3ccccc3)cc2)NC(=O)[C@H](C(C)C)NC(=O)[C@H](Cc2cccc(Cl)c2)NC(=O)[C@H](CC(=O)O)NC(=O)[C@H](Cc2ccc(C(=O)O)cc2)NC(=O)[C@H](CN)NC(=O)CSC[C@@H](C(=O)N[C@@H](C)C(N)=O)NC(=O)[C@H]([C@@H](C)O)NC(=O)[C@H](C(C)C)NC1=O` [Compound 1459] ({CH2CO}-[Dap][Phe(4-COOH)]D[Phe(3-Cl)]V[Bip]R[NMeA][dL][Dab]LVTCA-NH2; thioether N-14) has an IC50 of 0.04 µM.
Work on `CC(C)C[C@@H]1NC(=O)[C@H](CCN)NC(=O)[C@@H](CC(C)C)NC(=O)[C@H](C)N(C)C(=O)[C@H](CCCNC(=N)N)NC(=O)[C@H](Cc2ccc(-c3ccccc3)cc2)NC(=O)[C@H](C(C)C)NC(=O)[C@H](Cc2c[nH]c3ccccc23)NC(=O)[C@H](CC(=O)O)NC(=O)[C@H](Cc2ccc(C#N)cc2)NC(=O)[C@H](CC(N)=O)NC(=O)CSC[C@@H](C(=O)N[C@@H](C)C(N)=O)NC(=O)[C@H]([C@@H](C)O)NC(=O)[C@H](C(C)C)NC1=O` [Compound 1306] ({CH2CO}-N[Phe(4-CN)]DWV[Bip]R[NMeA][dL][Dab]LVTCA-NH2; thioether N-14) yielded an IC50 of 0.05 µM.
Work on `CCC(C)[C@@H]1NC(=O)[C@H](Cc2ccc(-c3ccccc3)cc2)NC(=O)[C@H](C(C)C)NC(=O)[C@H](Cc2cccc(C)c2)NC(=O)[C@H](CC(=O)O)NC(=O)[C@H](Cc2ccc(OCC(=O)O)cc2)NC(=O)[C@H](CCCC[N+](C)(C)C)NC(=O)CSCC(C(=O)NCC(N)=O)NC(=O)[C@H](CO)NC(=O)[C@H](C(C)C)NC(=O)[C@H](CC(C)C)NC(=O)[C@H](CC(N)=O)NC(=O)[C@@H](CC(C)C)NC(=O)[C@H](C)N(C)C1=O` (stereo partly drawn) [Compound 2064] ({CH2CO}-[Lys(Me3)]Y(Carboxymethyl)D[Phe(3-Me)]V[Bip][Ile(3ξ)][NMeA][dL]NLVS[ξC]G-NH2; thioether N-14) yielded an IC50 of 0.04 µM.
Compound `CC(C)C[C@@H]1NC(=O)[C@H](Cc2c[nH]c3ccccc23)NC(=O)[C@H](CC(=O)O)NC(=O)[C@H](Cc2ccc(O)cc2)NC(=O)[C@H](Cc2ccccc2)NC(=O)CSC[C@@H](C(=O)N[C@@H](C)C(=O)N[C@@H](CCCN)C(=O)O)NC(=O)[C@H](CO)NC(=O)[C@H](C(C)C)NC(=O)[C@H](CC(C)C)NC(=O)[C@H](CC(N)=O)NC(=O)[C@@H](CC(C)C)NC(=O)[C@H](C)N(C)C(=O)[C@H](C(C)C)NC(=O)[C@H](Cc2ccc(-c3ccccc3)cc2)NC1=O` [Compound 2238] ({CH2CO}-FYDWL[Bip]V[NMeA][dL]NLVSCA[Orn]-OH; thioether N-14) has an IC50 of 0.01 µM.
`CC[C@H](C)[C@@H]1NC(=O)[C@H](Cc2ccc(-c3ccccc3)cc2)NC(=O)[C@H](C(C)C)NC(=O)[C@H](Cc2c[nH]c3ccccc23)NC(=O)[C@H](CC(=O)O)NC(=O)[C@H](Cc2ccc(O)cc2)NC(=O)[C@H](CC(C)C)NC(=O)CSC[C@@H](C(=O)N[C@@H](C)C(N)=O)NC(=O)[C@H]([C@@H](C)O)NC(=O)[C@H](C(C)C)NC(=O)[C@H](CC(C)C)NC(=O)[C@H](CCN)NC(=O)[C@@H](CC(C)C)NC(=O)[C@H](C)N(C)C1=O` [Compound 1392] ({CH2CO}-LYDWV[Bip]I[NMeA][dL][Dab]LVTCA-NH2; thioether N-14) gave an IC50 of 0.04 µM.
